From ChEMBL document CHEMBL1201862, “PubChem BioAssay data set” (2004)
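Assay format: 96-well plates, 48-hour exposure. GI50 marks 50% less growth.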 Activity calls are given as the source filed them. Cut-off read from the data, not from the text of the source: active = GI50 up to about 1.1 µM and inactive = higher.

Tests used:
Assay in all cases: NCI anticancer screen, dose series, 48 h
NCI-H460 = tested on: NCI-H460
DLD-1 = tested on: DLD-1
786-0 = tested on: 786-0
M19-MEL = tested on: M19-MEL
OVCAR-5 = tested on: OVCAR-5
NCI-H23 = tested on: NCI-H23
SN12C = tested on: SN12C
HOP-18 = tested on: HOP-18
RXF 393 = tested on: RXF 393
COLO 205 = tested on: COLO 205
ACHN = tested on: ACHN
KM12 = tested on: KM12
OVCAR-4 = tested on: OVCAR-4
LXFL 529 = tested on: LXFL 529
SK-MEL-28 = tested on: SK-MEL-28
U-251 = tested on: U-251
HCT-15 = tested on: HCT-15
DMS-114 = tested on: DMS-114
SNB-78 = tested on: SNB-78
SK-OV-3 = tested on: SK-OV-3
HL-60 = tested on: HL-60
UACC-62 = tested on: UACC-62
KM-20L2 = tested on: KM-20L2
SF-539 = tested on: SF-539
HT-29 = tested on: HT-29
M14 = tested on: M14
CCRF-CEM = tested on: CCRF-CEM
HOP-62 = tested on: HOP-62
OVCAR-3 = tested on: OVCAR-3
SK-MEL-2 = tested on: SK-MEL-2
NCI-H522 = tested on: NCI-H522
DMS-273 = tested on: DMS-273
HCC 2998 = tested on: HCC 2998
IGROV-1 = tested on: IGROV-1
SK-MEL-5 = tested on: SK-MEL-5
CAKI-1 = tested on: CAKI-1
OVCAR-8 = tested on: OVCAR-8
UO-31 = tested on: UO-31
UACC-257 = tested on: UACC-257
HCT-116 = tested on: HCT-116
EKVX = tested on: EKVX
A549 = tested on: A549
TK-10 = tested on: TK-10
LOX IMVI = tested on: LOX IMVI
SF-295 = tested on: SF-295
SF-268 = tested on: SF-268
MOLT-4 = tested on: MOLT-4
SNB-75 = tested on: SNB-75
NCI-H226 = tested on: NCI-H226
K562 = tested on: K562
RPMI-8226 = tested on: RPMI-8226
Malme-3M = tested on: Malme-3M
SNB-19 = tested on: SNB-19

OC12CC/C(=N/OCc3ccccc3)CC1c1ccccc12 (stereo not drawn)
GI50 (NCI-H460): > 100 µM (inactive) | GI50 (DLD-1): > 100 µM (inactive) | GI50 (786-0): > 100 µM (inactive) | GI50 (M19-MEL): > 100 µM (inactive) | GI50 (OVCAR-5): > 100 µM (inactive) | GI50 (NCI-H23): > 100 µM (inactive) | GI50 (SN12C): > 100 µM (inactive) | GI50 (HOP-18): > 100 µM (inactive) | GI50 (RXF 393): > 100 µM (inactive) | GI50 (COLO 205): > 100 µM (inactive) | GI50 (ACHN): > 100 µM (inactive) | GI50 (KM12): > 100 µM (inactive) | GI50 (OVCAR-4): > 100 µM (inactive) | GI50 (LXFL 529): > 100 µM (inactive) | GI50 (SK-MEL-28): > 100 µM (inactive) | GI50 (U-251): > 100 µM (inactive) | GI50 (HCT-15): > 100 µM | GI50 (DMS-114): > 100 µM (inactive) | GI50 (SNB-78): > 100 µM (inactive) | GI50 (SK-OV-3): > 100 µM (inactive) | GI50 (HL-60): > 100 µM (inactive) | GI50 (UACC-62): > 100 µM (inactive) | GI50 (KM-20L2): > 100 µM (inactive) | GI50 (SF-539): > 100 µM (inactive) | GI50 (HT-29): > 100 µM (inactive) | GI50 (M14): > 100 µM (inactive) | GI50 (CCRF-CEM): > 100 µM (inactive) | GI50 (HOP-62): > 100 µM (inactive) | GI50 (OVCAR-3): > 100 µM (inactive) | GI50 (SK-MEL-2): > 100 µM (inactive) | GI50 (NCI-H522): > 100 µM (inactive) | GI50 (DMS-273): > 100 µM (inactive) | GI50 (HCC 2998): > 100 µM (inactive) | GI50 (IGROV-1): > 100 µM (inactive) | GI50 (SK-MEL-5): > 100 µM (inactive) | GI50 (CAKI-1): > 100 µM (inactive) | GI50 (OVCAR-8): > 100 µM (inactive) | GI50 (UO-31): > 100 µM (inactive) | GI50 (UACC-257): > 100 µM (inactive) | GI50 (HCT-116): > 100 µM (inactive) | GI50 (EKVX): > 100 µM (inactive) | GI50 (A549): > 100 µM (inactive) | GI50 (TK-10): > 100 µM (inactive) | GI50 (LOX IMVI): > 100 µM (inactive) | GI50 (SF-295): > 100 µM (inactive) | GI50 (SF-268): > 100 µM (inactive) | GI50 (MOLT-4): > 100 µM (inactive) | GI50 (SNB-75): 39.7 µM (inactive) | GI50 (NCI-H226): > 100 µM (inactive) | GI50 (K562): > 100 µM (inactive) | GI50 (RPMI-8226): > 100 µM (inactive) | GI50 (Malme-3M): > 100 µM (inactive) | GI50 (SNB-19): > 100 µM (inactive)
